From patent US11028077B2, “Crystalline pharmaceutical and methods of preparation and use thereof” (NOVARTIS PHARMACEUTICALS CORPORATION, priority 2008, dated 2021)
Values joined by “and” are separate entries in the source; they are usually repeats but may differ in a detail not shown here. Equal values may be shown once. Read-outs that look alike come from different tables or passages of the source.

Legend:
[1] = system: human mononuclear cells (PBMC) stimulated with staphylococcal enterotoxin B (SEB); assay: cells; assay type: cell-based
[2] = system: Keratoconjunctivitis Sicca (KCS); assay: Canine keratoconjunctivitis sicca (KCS) study; assay type: in vivo, dog
From the text: If dogs had been treated with topical CsA or tacrolimus in the previous six months, they were not enrolled. […] Animals were subjected to an ocular examination once during the initial visit and during five visits over sixteen weeks of the study (Weeks, 2, 4, 8, 12 and 16). The last OE was approximately four weeks after the last dose of the compound of Formula I and after one month of CsA treatment. The adnexa and anterior portions of both eyes were examined using an indirect opthalmoscope. The eyes were dilated with a mydriatic when applicable, to allow evaluation of the lens and fundus, including the retina. An evaluation using a modified McDonald-Shaddock scoring system was performed in conjunction with the slitlamp ocular examinations at each interval. Tears were measured using STT strips during the initial visit and each of the five follow-up visits on Weeks 2, 4, 8, 12 and 16. One strip of STT paper was used for each eye for each interval. […] The length, in mm, of wetting below the notch of the paper was recorded. Fluorescein and rose bengal staining was performed at the each of the initial and follow up examinations. Intraocular pressure measurements (IOPs) were performed using a Tono-Pet Vet® in conjunction with each of the OEs. Digital ocular images were taken before and after staining (with fluorescein and rose bengal) during each of the OEs. Conjunctival biopsies were taken at the initial (pretreatment) visit and the Week 12 visit. The second biopsy was taken more lateral (approx. 1 mm) to the initial biopsy. Following appropriate preparation a small conjunctival biopsy was taken from the ventral fornix of each eye.

[3] = system: attachment of Jurkat cells to ICAM-1; assay: T-cell adhesion assay using Jurkat cells; assay type: cell-based, human
Experimental: A reported LFA-1 antagonist was used as the positive control.
Jurkat cells were labeled with an 8 μM solution of BCECF-AM (2′,7′-bis-(2-carboxyethyl)-5-(and-6)-carboxyfluorescein) in growth media at room temperature for 15 minutes. […] Non-adherent cells were removed by washing and centrifugation at 100 g for 1 minute. Adherent cells were determined as adherent fluorescent units on a fluorescent plate reader.

[4] = Phase 1 clinical trial, plasma PK analysis; assay type: in vivo, human
Experimental: Samples were also obtained at 48 hours post dose on Days 1, 14 and 27 and a single blood sample was collected at the follow-up visit at the end of the study.

[5] = system: SEB stimulated IL-2 release in whole human blood; assay: cells; assay type: cell-based; details: read-out: IC50, inhibition of SEB stimulated IL-2 release
rats [6] = assay: CNS effects in rats, single bolus IV injection; assay type: in vivo, rat; details: 10.0 mg/kg IV, 1 minute to 6 hours postdose, 2/6 animals at each time point
From the text: No effect on any other parameters was observed.

[7] = system: Chinese hamster ovary (CHO) cells; assay: In vitro chromosomal aberration assay in CHO cells; assay type: cell-based; details: with and without metabolic activation; except single toxic dose 3500 μg/mL without activation
From the text: The biological relevance of this response is equivocal due to cytotoxicity.

CD-1 (ICR) BR mice = assay: In vivo mouse bone marrow micronucleus assay; details: repeated IV administrations
dogs = assay: Acute toxicity, escalating single dose IV and 7-day repeated dose with TK in dogs; assay type: in vivo, dog; details: escalating single dose IV and 7-day repeated dose
Experimental: 4. Acute Toxicity Studies: For single dose IV in rats, the no observable adverse effect level (NOAEL) was 10 mg/kg IV. For escalating single dose IV and 7-day repeated dose with TK (toxicokinetics) in dogs, the NOAEL was 10 mg/kg IV. For single dose ocular tolerance in rabbits, the NOAEL was 3.5 mg/eye/3× per day (10%).

rabbits [8] = assay: Single dose ocular tolerance in rabbits; assay type: in vivo, rabbit; details: rabbits (10%)
rats [9] = assay: 13-week IV toxicity study in rats with 4-week recovery (toxicity and plasma exposure); assay type: in vivo, rat
Solubility studies = assay type: physicochemical
[10] = rabbit, in vivo, topical or ocular, 0.35 mg
mini-pigs = assay: Pilot mini-pig dermal study
[11] = Plasma PK after single topical ocular instillation (dogs and rabbits); details: baseline levels by about 4 hours
rabbits [12] = assay: 13-week ocular toxicity study in rabbits with 4-week recovery (toxicity and TK); details: rabbits (3%)
[13] = daily IV bolus 3 mg/kg, Week 13
[14] = daily IV bolus 10 mg/kg, Week 13
[15] = daily IV bolus 30 mg/kg, Week 13

Structure (SMILES): CS(=O)(=O)c1cccc(C[C@H](NC(=O)c2c(Cl)cc3c(c2Cl)CCN(C(=O)c2ccc4ccoc4c2)C3)C(=O)O)c1 [compound of Formula I]
- EC50 [1]: ≤ 0.15 µM
- EC50 ([1]; read-out: EC50 Cytokine Release GM-CSF): 0.545 µM
- EC50 ([1]; read-out: EC50 Cytokine Release IFNγ): 0.0016 µM
- EC50 ([1]; read-out: EC50 Cytokine Release IL-1α): 0.24 µM
- EC50 ([1]; read-out: EC50 Cytokine Release IL-1β): 0.36 µM
- EC50 ([1]; read-out: EC50 Cytokine Release IL-2): 0.0018 µM
- EC50 ([1]; read-out: EC50 Cytokine Release IL-3): 52.2 µM
- EC50 ([1]; read-out: EC50 Cytokine Release IL-4): 0.143 µM
- EC50 ([1]; read-out: EC50 Cytokine Release IL-5): 0.11 µM
- EC50 ([1]; read-out: EC50 Cytokine Release IL-6): 43.5 µM
- EC50 ([1]; read-out: EC50 Cytokine Release IL-10): 0.147 µM
- EC50 ([1]; read-out: EC50 Cytokine Release IL-12p40): > 1000 µM
- EC50 ([1]; read-out: EC50 Cytokine Release IL-13): 0.36 µM
- EC50 ([1]; read-out: EC50 Cytokine Release IP-10): 1.16 µM
- EC50 ([1]; read-out: EC50 Cytokine Release MCP-1): 0.005 µM
- EC50 ([1]; read-out: EC50 Cytokine Release MIP-1α): 0.02 µM
- EC50 ([1]; read-out: EC50 Cytokine Release TNF-α): 0.076 µM
- Schirmer Tear Test (OS), individual dogs ([2]; Week 1, left eye, 1% solution, 0.35 mg/eye TID): 9 mm (2×) and 0 mm (3×) and 7 mm
- Schirmer Tear Test (OD), individual dogs ([2]; Week 1, right eye, 1% solution, 0.35 mg/eye TID): 8 mm (2×) and 6 mm (2×) and 0 mm and 5 mm
- Schirmer Tear Test (OS), individual dogs ([2]; Week 2, left eye, 1% solution TID): 4 mm and 0 mm (2×) and 14 mm and 3 mm and 8 mm
- Schirmer Tear Test (OD), individual dogs ([2]; Week 2, right eye, 1% solution TID): 10 mm and 2 mm (2×) and 11 mm (3×)
- Schirmer Tear Test (OS), individual dogs ([2]; Week 4, left eye, 1% solution TID): 14 mm (2×) and 0 mm (2×) and 7 mm and 5 mm
- Schirmer Tear Test (OD), individual dogs ([2]; Week 4, right eye, 1% solution TID): 15 mm and 2 mm and 0 mm and 5 mm and 10 mm (2×)
- Schirmer Tear Test (OS), individual dogs ([2]; Week 8, left eye, 1% solution TID): 8 mm (2×) and 0 mm and 2 mm and 17 mm and 6 mm
- Schirmer Tear Test (OD), individual dogs ([2]; Week 8, right eye, 1% solution TID): 17 mm and 1 mm and 8 mm and 7 mm (2×) and 11 mm
- Schirmer Tear Test (OS), individual dogs ([2]; Week 12, left eye, 1% solution TID): 8 mm (2×) and 3 mm and 7 mm and 15 mm and 4 mm
- Schirmer Tear Test (OD), individual dogs ([2]; Week 12, right eye, 1% solution TID): 16 mm and 0 mm and 8 mm and 7 mm and 13 mm and 9 mm
- Schirmer Tear Test (OS), individual dogs ([2]; Week 16, left eye, four weeks after last dose and after one month of CsA 0.2% ointment): 17 mm and 3 mm and 5 mm and 16 mm and 7 mm and 19 mm
- Schirmer Tear Test (OD), individual dogs ([2]; Week 16, right eye, four weeks after last dose and after one month of CsA 0.2% ointment): 18 mm and 12 mm and 8 mm (3×) and 22** mm
- Maximum-Minimum Analysis, maximal change in STT, OS, individual dogs ([2]; Weeks 1-12, left eye): 7 mm (2×) and 11 mm and 3 mm and 10 mm and 6 mm
- Maximum-Minimum Analysis, maximal change in STT, OD, individual dogs ([2]; Weeks 1-12, right eye): 3 mm and 8 mm (3×) and −4 mm and 5 mm
- average improvement in STT, all 12 eyes ([2]; during the treatment period (12 weeks)): 4 mm
- Histopathological evaluation of conjunctival biopsies taken before and after treatment ([2]; pretreatment vs Week 12): attenuation of lymphocyte accumulation
- mean change in Schirmer test score over pretreatment ([2]; week 12): Significant improvement
- Jurkat cell attachment to ICAM-1 [3]: inhibition of Jurkat cell attachment with increasing dose
- dose response curve and IC50 ([3]; compared with positive control, a reported LFA-1 antagonist): comparable to that of the known direct competitive LFA-1 antagonist
- plasma concentration ([4]; 0.1% dose strength, single and multiple doses, all timepoints (BLOQ)): < 0.500 ng/mL
- plasma concentration ([4]; 0.3% dose strength, single and multiple doses, all timepoints (BLOQ)): < 0.500 ng/mL
- plasma concentration ([4]; 1% dose strength, 3 of 5 subjects (BLOQ)): < 0.500 ng/mL
- plasma concentration ([4]; 5% dose strength, generally not detectable after the first hour): < 3 ng/mL
- IC50 [5]: 0.069 µM
- CNS observation (rats [6]): Transient miosis
- induction of structural chromosomal aberrations [7]: negative for inducing structural chromosomal aberrations
- micronuclei in polychromatic erythrocytes (CD-1 (ICR) BR mice): negative
- NOAEL (dogs): 10 mg/kg
- NOAEL (rabbits [8]): 3.5 mg/eye/3× per day
- AUC0-n (rats [9]; daily IV bolus 3 mg/kg, Day 1): 148.3 ng·h/mL
- Cmax (rats [9]; daily IV bolus 3 mg/kg, Day 1): 305.2 ng/mL
- AUC0-n (rats [9]; [13]): 241.4 ng·h/mL
- Cmax (rats [9]; [13]): 377.5 ng/mL
- AUC0-n (rats [9]; daily IV bolus 10 mg/kg, Day 1): 535.6 ng·h/mL
- Cmax (rats [9]; daily IV bolus 10 mg/kg, Day 1): 1045.3 ng/mL
- AUC0-n (rats [9]; [14]): 907.1 ng·h/mL
- Cmax (rats [9]; [14]): 1691.5 ng/mL
- AUC0-n (rats [9]; daily IV bolus 30 mg/kg, Day 1): 2345.5 ng·h/mL
- Cmax (rats [9]; daily IV bolus 30 mg/kg, Day 1): 5117.3 ng/mL
- AUC0-n (rats [9]; [15]): 7471.5 ng·h/mL
- Cmax (rats [9]; [15]): 16932.8 ng/mL
- solubility (Solubility studies; ethanol/glycol/transcutol solution): 10 % (w/w)
- solubility (Solubility studies; water/glycol/transcutol solution): 2 % (w/w)
- Mean tear AUC [10]: 18931 ng·h/mL
- toxicity (mini-pigs; DMSO, gel, ointment, lotion at 1%, dermal TID for 7 days, 10 mg/cm^2): No toxicity
- plasma level (mini-pigs; all groups, below the LLOQ): < 0.5 ng/mL
- time of maximum plasma concentration post-dose [11]: about 0.25 hrs
- NOAEL (rabbits [12]): 1.05 mg/eye/3× per day
